Assay results published in the kinase profiling compilation of Christmann-Franck et al. (2016).

Columns and labels:
Assay in all cases: KINOMEscan competition binding
Conditions in all cases: compound 10.0 µM
CaMK1 (human) = CaMK1 (human) (UniProt Q14012)
MAP3K12 (human) = MAP3K12 (human) (UniProt Q12852)
MKNK1 (human) = MKNK1 (human) (UniProt Q9BUB5)
CSNK1A1 (human) = CSNK1A1 (human) (UniProt P48729)
STK39 (human) = STK39 (human) (UniProt Q9UEW8)
BRAF (human) = BRAF (human) (UniProt P15056)
PRKX (human) = PRKX (human) (UniProt P51817)
RPS6KA2 KD1 (human) = RPS6KA2 KD1 (human) (UniProt Q15349)
MAP3K1 (human) = MAP3K1 (human) (UniProt Q13233)
MYLK3 (human) = MYLK3 (human) (UniProt Q32MK0)
RPS6KA1 KD1 (human) = RPS6KA1 KD1 (human) (UniProt Q15418)
LATS1 (human) = LATS1 (human) (UniProt O95835)
PHKG2 (human) = PHKG2 (human) (UniProt P15735)
MAK (human) = MAK (human) (UniProt P20794)
GRK7 (human) = GRK7 (human) (UniProt Q8WTQ7)
PIP5K1C (human) = PIP5K1C (human) (UniProt O60331)
IRAK4 (human) = IRAK4 (human) (UniProt Q9NWZ3)
RPS6KA1 KD2 (human) = RPS6KA1 KD2 (human) (UniProt Q15418)
STK24 (human) = STK24 (human) (UniProt Q9Y6E0)
[1] = tested on: LRRK2 (human), Q5S007 [G2019S]
TIE1 (human) = TIE1 (human) (UniProt P35590)
CDKL2 (human) = CDKL2 (human) (UniProt Q92772)
CDC2L2 (human) = CDC2L2 (human) (UniProt Q9UQ88)
CLK4 (human) = CLK4 (human) (UniProt Q9HAZ1)
[2] = tested on: BMX (human), P51813 [V600E]
BMPR1B (human) = BMPR1B (human) (UniProt O00238)
EPHA6 (human) = EPHA6 (human) (UniProt Q9UF33)
RPS6KA5 KD2 (human) = RPS6KA5 KD2 (human) (UniProt O75582)
SGK3 (human) = SGK3 (human) (UniProt Q96BR1)
[3] = tested on: RET (human), P07949 [V804L]
STK10 (human) = STK10 (human) (UniProt O94804)
PKN3 (M.tuberculosis) = PKN3 (M.tuberculosis) (UniProt Q6P5Z2)
PIM3 (human) = PIM3 (human) (UniProt Q86V86)
CDK2 (human) = CDK2 (human) (UniProt P24941)
PDPK1 (human) = PDPK1 (human) (UniProt O15530)
MET (human) = MET (human) (UniProt P08581)

Chain of STK24 (human) (Q9Y6E0 whole entry, looked up): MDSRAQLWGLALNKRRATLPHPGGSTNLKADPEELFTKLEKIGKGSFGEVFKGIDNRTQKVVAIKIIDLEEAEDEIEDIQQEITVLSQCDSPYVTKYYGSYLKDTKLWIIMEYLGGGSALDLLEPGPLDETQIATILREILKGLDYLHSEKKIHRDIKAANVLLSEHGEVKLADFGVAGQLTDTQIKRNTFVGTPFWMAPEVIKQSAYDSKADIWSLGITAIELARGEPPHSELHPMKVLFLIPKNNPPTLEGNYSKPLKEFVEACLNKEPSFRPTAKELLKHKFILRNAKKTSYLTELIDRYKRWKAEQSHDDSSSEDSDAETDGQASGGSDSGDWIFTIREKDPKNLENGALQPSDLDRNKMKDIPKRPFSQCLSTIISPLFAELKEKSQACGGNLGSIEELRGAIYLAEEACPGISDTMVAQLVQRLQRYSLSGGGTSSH
Chain of GRK7 (human) (Q8WTQ7 whole entry, looked up): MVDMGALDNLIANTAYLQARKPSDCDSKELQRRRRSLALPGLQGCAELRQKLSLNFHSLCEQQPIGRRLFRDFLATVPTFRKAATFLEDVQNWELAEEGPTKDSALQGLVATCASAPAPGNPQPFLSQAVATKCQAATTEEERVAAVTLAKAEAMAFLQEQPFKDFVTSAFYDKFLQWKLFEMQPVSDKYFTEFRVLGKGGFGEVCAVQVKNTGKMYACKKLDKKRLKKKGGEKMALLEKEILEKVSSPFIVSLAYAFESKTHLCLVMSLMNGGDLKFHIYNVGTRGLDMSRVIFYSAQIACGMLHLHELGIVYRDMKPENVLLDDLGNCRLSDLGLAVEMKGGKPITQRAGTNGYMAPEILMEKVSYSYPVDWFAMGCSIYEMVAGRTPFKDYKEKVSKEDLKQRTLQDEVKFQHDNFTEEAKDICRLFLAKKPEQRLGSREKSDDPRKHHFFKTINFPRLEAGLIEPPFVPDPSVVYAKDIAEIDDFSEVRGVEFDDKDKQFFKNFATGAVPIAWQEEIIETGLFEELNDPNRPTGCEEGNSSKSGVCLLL
Chain of PHKG2 (human) (P15735 whole entry, looked up): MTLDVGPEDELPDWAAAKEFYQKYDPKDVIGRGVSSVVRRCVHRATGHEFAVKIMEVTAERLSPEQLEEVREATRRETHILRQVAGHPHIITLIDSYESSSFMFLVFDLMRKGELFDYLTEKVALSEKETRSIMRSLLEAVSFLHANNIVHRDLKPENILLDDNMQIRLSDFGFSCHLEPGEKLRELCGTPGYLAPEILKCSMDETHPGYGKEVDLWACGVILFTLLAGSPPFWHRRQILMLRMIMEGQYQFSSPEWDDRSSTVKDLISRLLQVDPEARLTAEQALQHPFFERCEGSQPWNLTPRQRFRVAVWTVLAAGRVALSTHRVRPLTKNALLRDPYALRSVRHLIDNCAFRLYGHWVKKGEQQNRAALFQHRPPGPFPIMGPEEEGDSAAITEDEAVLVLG
Chain of IRAK4 (human) (Q9NWZ3 whole entry, looked up): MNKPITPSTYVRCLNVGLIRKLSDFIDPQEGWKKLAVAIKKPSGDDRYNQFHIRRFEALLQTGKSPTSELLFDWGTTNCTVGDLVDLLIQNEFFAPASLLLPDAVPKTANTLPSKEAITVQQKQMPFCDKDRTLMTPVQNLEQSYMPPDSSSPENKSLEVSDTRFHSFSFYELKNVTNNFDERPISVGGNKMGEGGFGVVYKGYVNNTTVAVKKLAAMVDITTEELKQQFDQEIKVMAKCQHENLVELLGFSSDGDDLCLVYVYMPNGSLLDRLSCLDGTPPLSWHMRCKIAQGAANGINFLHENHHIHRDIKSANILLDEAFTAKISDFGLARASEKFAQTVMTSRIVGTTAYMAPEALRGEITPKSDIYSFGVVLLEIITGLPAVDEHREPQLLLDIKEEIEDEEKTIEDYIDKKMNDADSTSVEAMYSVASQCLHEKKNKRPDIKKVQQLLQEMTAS
Chain of MYLK3 (human) (Q32MK0 whole entry, looked up): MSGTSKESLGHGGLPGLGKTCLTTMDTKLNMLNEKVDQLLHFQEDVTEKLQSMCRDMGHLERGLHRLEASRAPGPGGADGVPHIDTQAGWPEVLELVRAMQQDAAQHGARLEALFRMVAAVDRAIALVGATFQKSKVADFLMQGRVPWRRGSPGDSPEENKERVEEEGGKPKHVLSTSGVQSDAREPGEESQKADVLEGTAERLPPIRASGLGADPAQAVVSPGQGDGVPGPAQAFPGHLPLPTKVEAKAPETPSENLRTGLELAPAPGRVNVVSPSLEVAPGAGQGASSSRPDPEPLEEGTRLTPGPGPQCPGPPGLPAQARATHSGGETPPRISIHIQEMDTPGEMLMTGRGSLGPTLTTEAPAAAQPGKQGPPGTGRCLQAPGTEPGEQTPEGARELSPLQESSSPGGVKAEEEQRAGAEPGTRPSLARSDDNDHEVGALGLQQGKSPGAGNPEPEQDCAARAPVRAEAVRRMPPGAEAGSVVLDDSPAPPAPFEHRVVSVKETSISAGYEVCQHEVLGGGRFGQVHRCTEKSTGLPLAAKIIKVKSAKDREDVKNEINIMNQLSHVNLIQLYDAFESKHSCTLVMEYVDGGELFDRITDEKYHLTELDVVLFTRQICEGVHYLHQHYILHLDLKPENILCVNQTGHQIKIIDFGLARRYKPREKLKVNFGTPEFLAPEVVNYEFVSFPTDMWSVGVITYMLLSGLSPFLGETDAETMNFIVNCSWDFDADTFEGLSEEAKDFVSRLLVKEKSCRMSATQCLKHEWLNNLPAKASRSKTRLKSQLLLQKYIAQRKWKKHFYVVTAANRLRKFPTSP
Chain of PKN3 (M.tuberculosis) (Q6P5Z2 whole entry, looked up): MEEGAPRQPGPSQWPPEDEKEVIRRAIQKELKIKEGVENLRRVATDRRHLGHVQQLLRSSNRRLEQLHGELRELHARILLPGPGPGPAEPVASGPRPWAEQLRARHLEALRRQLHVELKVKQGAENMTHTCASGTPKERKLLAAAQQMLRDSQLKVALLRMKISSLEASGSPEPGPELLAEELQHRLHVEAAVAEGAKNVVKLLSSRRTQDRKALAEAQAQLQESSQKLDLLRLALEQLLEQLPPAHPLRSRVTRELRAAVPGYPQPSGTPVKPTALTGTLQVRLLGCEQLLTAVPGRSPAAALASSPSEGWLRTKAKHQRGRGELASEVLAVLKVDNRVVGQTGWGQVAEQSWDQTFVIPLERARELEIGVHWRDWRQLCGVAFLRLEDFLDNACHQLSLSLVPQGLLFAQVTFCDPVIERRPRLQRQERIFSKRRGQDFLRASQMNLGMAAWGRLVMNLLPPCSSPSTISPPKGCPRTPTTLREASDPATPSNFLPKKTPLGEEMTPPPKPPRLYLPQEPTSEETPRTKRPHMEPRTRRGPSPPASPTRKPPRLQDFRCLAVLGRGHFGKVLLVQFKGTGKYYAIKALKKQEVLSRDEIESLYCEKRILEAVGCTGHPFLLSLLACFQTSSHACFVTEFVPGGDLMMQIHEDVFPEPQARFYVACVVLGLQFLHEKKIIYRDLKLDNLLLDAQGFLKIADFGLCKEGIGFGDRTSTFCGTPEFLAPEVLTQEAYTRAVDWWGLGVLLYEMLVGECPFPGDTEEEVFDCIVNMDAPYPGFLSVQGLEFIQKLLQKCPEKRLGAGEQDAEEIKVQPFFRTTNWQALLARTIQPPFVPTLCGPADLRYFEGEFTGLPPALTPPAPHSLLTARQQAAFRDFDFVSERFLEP
Chain of CLK4 (human) (Q9HAZ1 whole entry, looked up): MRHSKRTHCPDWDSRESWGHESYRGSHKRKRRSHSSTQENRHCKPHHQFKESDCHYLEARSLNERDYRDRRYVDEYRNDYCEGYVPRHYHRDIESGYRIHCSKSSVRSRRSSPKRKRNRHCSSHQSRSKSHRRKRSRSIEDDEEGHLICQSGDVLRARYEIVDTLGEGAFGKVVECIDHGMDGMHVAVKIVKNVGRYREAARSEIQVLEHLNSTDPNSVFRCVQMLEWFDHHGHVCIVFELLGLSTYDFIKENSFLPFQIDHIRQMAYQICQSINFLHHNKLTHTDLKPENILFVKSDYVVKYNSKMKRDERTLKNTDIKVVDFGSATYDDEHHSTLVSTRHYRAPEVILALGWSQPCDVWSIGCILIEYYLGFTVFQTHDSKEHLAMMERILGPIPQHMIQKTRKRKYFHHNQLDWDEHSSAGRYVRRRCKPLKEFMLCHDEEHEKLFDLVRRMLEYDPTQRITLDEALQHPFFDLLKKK
Chain of BRAF (human) (P15056 whole entry, looked up): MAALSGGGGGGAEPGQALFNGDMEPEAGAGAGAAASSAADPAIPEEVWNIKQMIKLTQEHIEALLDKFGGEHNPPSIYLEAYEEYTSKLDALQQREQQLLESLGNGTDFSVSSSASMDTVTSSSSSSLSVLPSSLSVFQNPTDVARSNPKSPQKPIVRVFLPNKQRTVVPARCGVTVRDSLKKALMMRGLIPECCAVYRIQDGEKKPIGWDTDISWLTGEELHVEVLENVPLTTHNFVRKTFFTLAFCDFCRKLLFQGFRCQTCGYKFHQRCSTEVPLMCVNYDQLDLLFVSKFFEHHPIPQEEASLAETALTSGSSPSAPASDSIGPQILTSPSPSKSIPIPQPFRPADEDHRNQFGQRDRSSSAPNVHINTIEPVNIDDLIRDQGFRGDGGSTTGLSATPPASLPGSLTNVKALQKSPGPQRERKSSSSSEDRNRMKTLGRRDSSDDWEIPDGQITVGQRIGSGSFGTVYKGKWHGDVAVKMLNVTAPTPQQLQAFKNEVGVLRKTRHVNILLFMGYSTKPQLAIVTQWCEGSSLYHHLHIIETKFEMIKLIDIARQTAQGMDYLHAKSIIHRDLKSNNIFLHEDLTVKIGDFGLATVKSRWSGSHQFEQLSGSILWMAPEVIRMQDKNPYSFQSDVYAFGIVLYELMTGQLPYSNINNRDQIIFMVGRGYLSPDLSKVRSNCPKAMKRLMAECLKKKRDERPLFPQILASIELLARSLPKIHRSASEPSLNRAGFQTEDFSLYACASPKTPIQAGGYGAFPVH

Structure (SMILES) | kinase still bound, per cent of control (CaMK1 (human)) | kinase still bound, per cent of control (MAP3K12 (human)) | kinase still bound, per cent of control (MKNK1 (human)) | kinase still bound, per cent of control (STK39 (human)) | kinase still bound, per cent of control (PRKX (human)) | kinase still bound, per cent of control (RPS6KA2 KD1 (human)) | kinase still bound, per cent of control (MYLK3 (human)) | kinase still bound, per cent of control (RPS6KA1 KD1 (human)) | kinase still bound, per cent of control (LATS1 (human)) | kinase still bound, per cent of control (PHKG2 (human)) | kinase still bound, per cent of control (MAK (human)) | kinase still bound, per cent of control (GRK7 (human)) | kinase still bound, per cent of control (PIP5K1C (human)) | kinase still bound, per cent of control (IRAK4 (human)) | kinase still bound, per cent of control (RPS6KA1 KD2 (human)) | kinase still bound, per cent of control (STK24 (human)) | kinase still bound, per cent of control [1] | kinase still bound, per cent of control (CDKL2 (human)) | kinase still bound, per cent of control (CDC2L2 (human)) | kinase still bound, per cent of control (CLK4 (human)) | also measured
COc1cc2c(Nc3ccc(NC(=O)c4ccccc4)cc3)ncnc2cc1OCCCN1CCOCC1 | 55% | 35% | 100% | 100% | 81% | 84% | 100% | 72% | 100% | 76% | 59% | 71% | 69% | 51% | 72% | 46% | 100% | 12% | 6.9% | 100% | kinase still bound, per cent of control (CSNK1A1 (human)): 63%; kinase still bound, per cent of control (BRAF (human)): 100%; kinase still bound, per cent of control (MAP3K1 (human)): 92%; kinase still bound, per cent of control (TIE1 (human)): 27%; kinase still bound, per cent of control [2]: 100%; kinase still bound, per cent of control (BMPR1B (human)): 26%; kinase still bound, per cent of control (EPHA6 (human)): 85%; kinase still bound, per cent of control (RPS6KA5 KD2 (human)): 100%; kinase still bound, per cent of control (SGK3 (human)): 100%; kinase still bound, per cent of control [3]: 9.6%; kinase still bound, per cent of control (STK10 (human)): 0.15%; kinase still bound, per cent of control (PKN3 (M.tuberculosis)): 37%; kinase still bound, per cent of control (PIM3 (human)): 100%; kinase still bound, per cent of control (CDK2 (human)): 82%; kinase still bound, per cent of control (PDPK1 (human)): 100%
CCN(CCO)CCCOc1ccc2c(Nc3cc(CC(=O)Nc4cccc(F)c4)[nH]n3)ncnc2c1 | 69% | 58% | 68% | 100% | 66% | 80% | 98% | 83% | 100% | 81% | 92% | 54% | 75% | 76% | 69% | 43% | 100% | 18% | 5% | 36% | kinase still bound, per cent of control (MET (human)): 46%; kinase still bound, per cent of control (CSNK1A1 (human)): 49%; kinase still bound, per cent of control (BRAF (human)): 100%; kinase still bound, per cent of control [2]: 100%; kinase still bound, per cent of control (BMPR1B (human)): 77%; kinase still bound, per cent of control (EPHA6 (human)): 69%; kinase still bound, per cent of control (RPS6KA5 KD2 (human)): 100%; kinase still bound, per cent of control (SGK3 (human)): 100%; kinase still bound, per cent of control [3]: 2%; kinase still bound, per cent of control (STK10 (human)): 11%; kinase still bound, per cent of control (PKN3 (M.tuberculosis)): 50%; kinase still bound, per cent of control (PIM3 (human)): 100%; kinase still bound, per cent of control (CDK2 (human)): 84%; kinase still bound, per cent of control (PDPK1 (human)): 100%
CCc1nc(-c2cccc(C)c2)c(-c2ccnc(NC(=O)c3ccccc3)c2)s1 | 85% | 100% | 100% | 100% | 100% | 100% | 93% | 89% | 100% | 76% | 70% | 100% | 100% | 100% | 28% | 69% | 100% | 80% | 90% | 93% | kinase still bound, per cent of control (MET (human)): 94%; kinase still bound, per cent of control (BRAF (human)): 40%; kinase still bound, per cent of control (MAP3K1 (human)): 90%; kinase still bound, per cent of control (TIE1 (human)): 96%; kinase still bound, per cent of control [2]: 23%; kinase still bound, per cent of control (BMPR1B (human)): 100%; kinase still bound, per cent of control (EPHA6 (human)): 47%; kinase still bound, per cent of control (RPS6KA5 KD2 (human)): 100%; kinase still bound, per cent of control (SGK3 (human)): 100%; kinase still bound, per cent of control [3]: 99%; kinase still bound, per cent of control (STK10 (human)): 59%; kinase still bound, per cent of control (PKN3 (M.tuberculosis)): 100%; kinase still bound, per cent of control (PIM3 (human)): 86%; kinase still bound, per cent of control (CDK2 (human)): 100%; kinase still bound, per cent of control (PDPK1 (human)): 89%
C=CC(=O)Nc1ccc(C(=O)c2sc(Nc3ccc(N4CCN(C)CC4)cc3OC)nc2N)cc1 | 8.2% | 79% | 34% | 0% | 99% | 97% | 100% | 24% | 82% | 3% | 100% | 100% | 44% | 92% | 0.3% | 71% | 1.5% | 86% | 87% | 1.6% | kinase still bound, per cent of control (MET (human)): 83%; kinase still bound, per cent of control (CSNK1A1 (human)): 73%; kinase still bound, per cent of control (MAP3K1 (human)): 100%; kinase still bound, per cent of control (TIE1 (human)): 67%; kinase still bound, per cent of control [2]: 92%; kinase still bound, per cent of control (BMPR1B (human)): 86%; kinase still bound, per cent of control (EPHA6 (human)): 88%; kinase still bound, per cent of control (RPS6KA5 KD2 (human)): 7%; kinase still bound, per cent of control (SGK3 (human)): 83%; kinase still bound, per cent of control [3]: 100%; kinase still bound, per cent of control (STK10 (human)): 100%; kinase still bound, per cent of control (PKN3 (M.tuberculosis)): 100%; kinase still bound, per cent of control (PIM3 (human)): 87%; kinase still bound, per cent of control (CDK2 (human)): 75%; kinase still bound, per cent of control (PDPK1 (human)): 100%
